Values of other authors, collected in patent US20070196463A1, “Enteric Soft Gelatin Capsule Containing Esomerpazole And Method Of Preparation” (Natco Pharma Limited, priority 2004, published 2007).

inter-individual variability (human, due to more consistent pharmacokinetics): reduced
Compound: COc1ccc2nc([S@@+]([O-])Cc3ncc(C)c(OC)c3C)[nH]c2c1 [esomeprazole]
activity of the enantiomer in human testing (human testing of enantiomers of omeprazole): more active
